Data: patent publication US20240317762A1, “PHTHALAZINONE-BASED PARP-1 INHIBITORS” (Oregon Health & Science University, priority 2021, published 2024)

Tests used:
HEK 293T cells = experiment: cell proliferation (MTT) assay; format: cell-based, human; conditions: MTT, 72 h
Experimental: HEK 293T or HEK 293 PARP-1 KO cells were seeded in a 96 well plate at 1000-2000 cells per well. Following an overnight incubation, MTT reagent, 3-(4,5-dimethylthiazol-2-yl)-2,5-diphenyltetrazolium bromide, or a dosage curve of indicated inhibitor was added to each well in quadruplicate. Following a 3-hour incubation at 37° C., wells containing MTT reagent, were aspirated and lysed with 100 μl DMSO. These wells acting as a no growth control were collected, saved @ −20° C., and replaced with 100 μl water. The plate was placed back into the incubator for a total of 72 hours of inhibitor treatment prior to MTT reagent being added for a final time. Following a 3 hour incubation with the reagent, wells were aspirated, and 100 μl DMSO were added to each well, while the no growth control sample was added back to the plate. Absorbance was read on a SpectraMaxi3 plate reader (Molecular Devices). Percent growth was calculated for analysis. Statistical significance was assigned using individual t-tests between conditions for each inhibitor dosage.
Error bars represent SEM. […] Error bars represent SEM. […] Error bars represent SEM.

PARP-1 [1] = molecular target: T1, PARP-1 (Homo sapiens, UniProt P09874); experiment: in vitro PARP-1 auto-PARylation assay (SRPK2 plate assay); format: biochemical; design: The full-length WT PARP-1 protein used in these assays; made in house
Experimental: IC50 SRPK2 Plate Assays were performed as previously described (21). Log(inhibitor) versus response curves were fit using non-linear regression with variable slope. Mean IC50 values for each compound were derived from a minimum of three separate replicates.

PARP-1 [2] = molecular target: T1, PARP-1; experiment: fluorescence polarization DNA binding affinity assay; conditions: 5 μM inhibitor; compared to DMSO control
From the text: The full-length WT PARP-1 protein used in these assays was purified as described previously (30).

[3] = tested on: Ewing sarcoma cell line EW-8; experiment: ES-8 viability screen (CellTiter-Glo); format: cell-based
Experimental: Cell viability was measured using the CellTiter-Glo (Promega, G7573) assay and read using an Envision (PerkinElmer) plate reader. Compound source plates (96-well) were prepared by solubilizing each drug in DMSO to a maximum concentration of 1-50 mM, then arraying samples in 10-point dose-response with 3-fold dilution. Positive and negative controls (staurosporine at 10 mM and DMSO, respectively) were added to the source plates. Drug was transferred from the source plate to the assay plate using a Biomek FX (Beckman Coulter) liquid handler equipped with a pin tool which transferred ˜100 nl into a final volume of 100 μl, resulting in ˜1000-fold dilution. At least two biological replicates (assay performed on different day with same drug plate and independent cell preparation) were obtained for each drug. To analyze the assay, the relative light unit signal in each well was first log 2 transformed, then normalized by subtracting the mean of the negative controls wells on each plate.
(§1) FIGS. 6A-6E. […] 0.1 μM ad-olaparib (chemical structure indicated in panel a) was added to the cells for 1 hour before undergoing a UV treatment for 5 minutes in cold PBS. Cells were lysed and sonicated in PBS (1% Triton X-100+1% SDS), clicked with TAMRA-azide and run out on SDS-PAGE. The gel was imaged for TAMRA and probed for PARP-1 (Bethyl Laboratories), and alpha-tubulin (X). FIGS. 6B, 6D) Quantification of western blot images. TAMRA or ADPr values are normalized to PARP-1 within each replicate and plotted as percentage compared to DMSO. Error bars indicate SEM (n=3-4). Statistical significance of off-rate calculated via multiple t-tests (p<0.05). […] Cells were subsequently treated with PARGi (10 μM) for 30 minutes, lysed using RIPA buffer, run out on SDS-PAGE, and probed for ADPr (Cell Signaling) and PARP-1 (Bethyl Laboratories). FIG. 6E) ES-8 cells were treated with indicated concentration of inhibitors for 72 hours before measuring cell viability using the CellTiter-Glo kit (Promega G7573). IC50 values were calculated using R statistical software.

PARP-1 [4] = molecular target: T1, PARP-1; experiment: in-cell competition labeling with ad-olaparib photoaffinity probe; format: cell-based
Experimental: Photocrosslinking in intact cells. HEK293 CRL and PARP-1 KO cells were grown in DMEM for 2 days in a 60 mm dish for 2 days to reach 80-90% confluency. […] Cells were then washed once with PBS, covered with PBS and irradiated for 5 min in the RPR-100 Photochemical Reactor (Rayonet) equipped with 350 nm lamps at 4° C. Cells were lysed on ice in 1% SDS, 1% Triton X-100 and EDTA-free protease inhibitor cocktail (Roche) in PBS for 10 min and then probe sonicated to shear the nuclear DNA. Protein concentration was determined with Bio-Rad Protein assay. The lysate was diluted in PBS to a final Click reaction concentration of 2 mg/mL.
Click Chemistry. Reaction was started by mixing 30 μL of each sample with 15 μL of PBS based 3× Click reaction mixture containing (final concentrations): 100 μM Tris[(1-benzyl-1H-1,2,3triazol-4-yl)methyl]amine (TBTA, Click Chemistry Tools), 1 mM CuSO4, 40 μM tetramethylrhodamine (TAMRA)-azide (Click Chemistry Tools), 1 mM Tris(2-carboxyethyl)phosphine hydrochloride (TCEP, Thermo Fisher) and 15% tert-Butyl alcohol, and let to procced for 1 h at RT while gently shaking. Reactions were stopped by adding 4× Laemmli sample buffer and boiling at 95° C. for 5 min.
In gel fluorescence, western blotting and quantification. Samples were loaded to 8 or 10% SDS-polyacrylamide gels and run until the dye front left the gel. First, in-gel fluorescence was detected with ChemiDoc XRS+ (Biorad) using Rhodamine filter and then the proteins were transferred on nitrocellulose membrane, the membrane was blocked and probed for PARP-1 (1:3000) and alpha-tubulin (1:1000). Both antibodies were from cell signaling. Band intensities we quantified with ImageJ.
as §1

PARP-1 [5] = molecular target: T1, PARP-1; experiment: PARP-1 PARylation after washout (off-rate analysis); format: cell-based; conditions: 300 nM, 30 minutes, no washout; read-out: inhibition of PARP-1-mediated PARylation activity prior to washout
Experimental: For off-rate analysis, after 30 minute pre-treatment with indicated inhibitors, cells were washed once before incubating for 0, 3, 6, or 12 hours in fresh media. Following release times, cells were incubated with PDD 00017273 (10 μM) for 30 minutes before proceeding using the same western blot protocol detailed above. Statistical significance was established through multiple unpaired t-tests with nonlinear regression fit analysis.
as §1, with “FIG. 6E) ES-8 cells were treated with indicated concentration of inhibitors for 72 hours before measuring cell viability using the CellTiter-Glo kit (Promega G7573).” left out

PARP-1 [6] = molecular target: T1, PARP-1; experiment: PARP-1 auto-PARylation activity assay in cells; format: cell-based
Experimental: Cells were washed with PBS, and lysed in RIPA buffer (50 mM Tris-HCl [pH 8.0], 150 mM NaCl, 0.1% SDS, 1% Triton X-100, 1× cOmplete™ protease inhibitors (Roche), and 1 μM Veliparib). […] Following quantification, 4× Laemmli sample buffer with 5% β-mercaptoethanol was added to 25-50 μg of protein.
Membrane blots were blocked with 5% milk-PBST for 1 h at RT, followed by incubation with a rabbit pan-ADP-ribose binding reagent (Cell Signaling), a rabbit PARP-1 antibody (Bethyl Laboratories), or a mouse b-actin antibody (Santa Cruz Biotechnology) for 2 h at RT, followed by incubation with HRP-conjugated secondary antibodies. […] Blots were imaged for chemiluminescent signal on a ChemiDoc MP system (BioRad). Statistical significance was established through multiple unpaired t-tests with nonlinear regression fit analysis.
FIGS. 5A-5F. […] An unlabeled competitor was added and the decrease in fluorescence polarization was measured across time. […] Error bars represent SEM. […] Error bars represent SEM. […] Cells were subsequently lysed using RIPA buffer, run out on SDS-PAGE, and probed for ADPr (Cell Signaling) and PARP-1 (Bethyl Laboratories). FIG. 5F) Quantification of western blot images. ADPr values are normalized to PARP-1 within each replicate and plotted as percentage compared to DMSO. Error bars indicate SEM (n=3).

T1 sequence (P09874 whole entry): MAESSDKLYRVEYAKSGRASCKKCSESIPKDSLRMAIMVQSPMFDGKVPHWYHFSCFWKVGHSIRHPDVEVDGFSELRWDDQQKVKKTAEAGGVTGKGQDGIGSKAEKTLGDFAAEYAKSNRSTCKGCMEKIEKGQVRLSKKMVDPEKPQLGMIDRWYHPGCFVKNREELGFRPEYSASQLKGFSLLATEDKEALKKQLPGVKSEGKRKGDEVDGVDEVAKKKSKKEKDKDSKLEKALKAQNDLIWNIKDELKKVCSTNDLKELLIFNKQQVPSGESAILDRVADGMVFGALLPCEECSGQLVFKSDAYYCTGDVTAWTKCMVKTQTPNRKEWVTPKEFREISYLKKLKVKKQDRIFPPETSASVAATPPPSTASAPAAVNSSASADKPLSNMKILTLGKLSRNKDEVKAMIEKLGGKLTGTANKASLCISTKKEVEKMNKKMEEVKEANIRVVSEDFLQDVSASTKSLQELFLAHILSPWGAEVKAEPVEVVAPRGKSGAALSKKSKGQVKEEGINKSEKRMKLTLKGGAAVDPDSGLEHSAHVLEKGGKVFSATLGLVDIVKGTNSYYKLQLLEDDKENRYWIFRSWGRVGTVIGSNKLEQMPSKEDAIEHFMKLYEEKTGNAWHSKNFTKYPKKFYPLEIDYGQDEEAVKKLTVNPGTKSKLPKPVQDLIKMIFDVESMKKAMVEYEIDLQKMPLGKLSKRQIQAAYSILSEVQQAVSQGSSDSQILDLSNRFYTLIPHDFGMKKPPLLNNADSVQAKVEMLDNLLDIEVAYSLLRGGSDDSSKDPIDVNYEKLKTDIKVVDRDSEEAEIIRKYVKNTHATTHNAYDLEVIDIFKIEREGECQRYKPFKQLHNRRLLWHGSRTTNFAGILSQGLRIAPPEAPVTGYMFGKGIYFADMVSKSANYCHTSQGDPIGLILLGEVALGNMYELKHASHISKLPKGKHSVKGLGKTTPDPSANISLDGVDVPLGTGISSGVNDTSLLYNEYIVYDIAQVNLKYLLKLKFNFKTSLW

In the case of `C[C@H]1Cn2c(nnc2C(C)(F)F)CN1C(=O)c1cc(Cc2n[nH]c(=O)c3ccccc23)ccc1F` [Pip6, (S)-4-(3-(3-(1,1-difluoroethyl)-6-methyl-5,6,7,8-tetrahydro-[1,2,4]triazolo[4,3-a]pyrazine-7-carbonyl)-4-fluorobenzyl)phthalazin-1(2H)-one], the EC50 (HEK 293T cells; Homo sapiens, HEK-293T, read-out: EC50 cell growth) is reported as 0.94 nM, the “potency in inhibiting cell growth compared with AZ0108” value (HEK 293T cells) is reported as “substantially more potent than AZ0108” and the “potency against PARP-1 auto-PARylation compared with AZ0108” value (PARP-1 [1]) is reported as “equipotent”. For the same molecule, the “effect on the affinity of PARP-1 for nicked DNA” value (PARP-1 [2]) was “more pronounced effect on DNA binding than Pip5”, the “fold more cytotoxic than AZ0108 in Ewing sarcoma cells” value [3] was roughly 80 fold and the “Fold Difference to Pip6” value ([3]; ratio of EC50 values) was 1. For the same molecule, the EC50 ([3]; viability, 72 h) was 0.24 nM, the “EC50 (nM)” value ([3]; viability, 72 h) was “sub-nanomolar” and the “labeling of PARP-1 by ad-olaparib after pre-treatment” value (PARP-1 [4]; 10 μM inhibitor, 0.1 μM ad-olaparib) was “substantially blocked”. For the same molecule, the “residence time on PARP-1 compared to AZ0108” value (PARP-1 [4]; in cells and in vitro) was “longer residence time”, the “recovery of labeling of PARP-1 by ad-olaparib after washout” value (PARP-1 [4]; washout (3 h)) was “not recovered” and the inhibition at 0.3 µM (PARP-1 [5]) was greater than 90%. The “fold more potent than AZ0108 in inhibiting PARP-1 PARylation in HEK 293 cells” value (PARP-1 [6]) was roughly 20 fold, the EC50 (PARP-1 [6]; 30 min inhibitor, then PARG inhibitor PDD00017273, read-out: EC50 inhibiting PARP-1 PARylation in HEK 293 cells) was 2.3 nM and the IC50 (PARP-1 [6]; FIG. 5F, nonlinear regression, read-out: IC50 of dose curves, quantification of western blot (ADPr normalized to PARP-1)) was 2.26 nM.
